# How the values were obtained:
# [1] = system: Mycobacterium tuberculosis; experiment: Antibacterial activity against Mycobacterium tuberculosis ATCC 27294 assessed as reduction in bacterial cell growth measured after 48 hrs by broth microdilution method; type: functional
# [2] = biological target: T1, Enoyl-[acyl-carrier-protein] reductase [NADH] (Mycobacterium tuberculosis, UniProt P9WGR1); experiment: Binding affinity to Mycobacterium tuberculosis InhA assessed as dissociation constant
# T1 sequence (P9WGR1 whole entry): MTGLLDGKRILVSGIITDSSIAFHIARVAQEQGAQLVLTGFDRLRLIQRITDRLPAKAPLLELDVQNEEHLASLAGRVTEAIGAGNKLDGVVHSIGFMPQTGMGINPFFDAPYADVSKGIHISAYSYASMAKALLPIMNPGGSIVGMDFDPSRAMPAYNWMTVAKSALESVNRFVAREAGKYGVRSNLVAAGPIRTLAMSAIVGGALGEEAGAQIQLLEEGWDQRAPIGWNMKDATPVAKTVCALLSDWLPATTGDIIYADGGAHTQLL
# [3] = biological target: T1, Enoyl-[acyl-carrier-protein] reductase [NADH]; experiment: Inhibition of Mycobacterium tuberculosis InhA
# [4] = system: Mycobacterium tuberculosis; experiment: Antimycobacterial activity against Mycobacterium tuberculosis H37Rv assessed as reduction in bacterial growth incubated for 7 days by resazurin dye based assay; type: functional; details: 168 h, time 7 day
# [5] = biological target: HTH-type transcriptional regulator EthR (Mycobacterium tuberculosis) (UniProt P9WMC1); experiment: Binding affinity to Mycobacterium tuberculosis EthR assessed as change in melting temperature at 100 uM by thermal shift assay
# Chain of HTH-type transcriptional regulator EthR (Mycobacterium tuberculosis) (P9WMC1 whole entry): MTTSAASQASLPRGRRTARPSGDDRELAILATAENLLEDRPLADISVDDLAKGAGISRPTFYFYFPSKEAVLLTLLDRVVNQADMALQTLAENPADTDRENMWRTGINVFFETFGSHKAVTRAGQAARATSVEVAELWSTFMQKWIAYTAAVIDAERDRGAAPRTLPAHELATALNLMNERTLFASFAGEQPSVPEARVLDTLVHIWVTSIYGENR
# [6] = biological target: HTH-type transcriptional regulator EthR (Mycobacterium tuberculosis, UniProt P9WMC1); experiment: Inhibition of Mycobacterium tuberculosis EthR by SPR assay
# Chain of HTH-type transcriptional regulator EthR (P9WMC1 whole entry): as above
# [7] = Metabolic stability in CD-1 mouse liver microsomes assessed as intrinsic clearance at 20 uM measured after 40 mins by LC-MS/MS analysis; type: ADME, Microsome
# [8] = biological target: HTH-type transcriptional regulator EthR (Mycobacterium tuberculosis) (UniProt P9WMC1); experiment: Binding affinity to Mycobacterium tuberculosis EthR assessed as change in melting temperature at 20 uM by thermal shift assay
# [9] = system: Mycobacterium tuberculosis; experiment: Antimycobacterial activity against Mycobacterium tuberculosis infected in mouse macrophage cells assessed as bacterial growth inhibition; type: functional, organism-based
# [10] = system: Mycobacterium tuberculosis; experiment: Antimycobacterial activity against Mycobacterium tuberculosis Erdman infected in BALB/c mouse model assessed as log reduction of bacterial load in lung at 200 mg/kg administered via oral gavage for 2 weeks; type: functional
# [11] = system: Mycobacterium tuberculosis; experiment: Antimycobacterial activity against Mycobacterium tuberculosis H37Rv assessed as reduction in bacterial cell growth measured after 7 days by resazurin dye based analysis; type: functional; details: 168 h, time 7 day
# [12] = system: Mycobacterium tuberculosis; experiment: Antimycobacterial activity against Mycobacterial tuberculosis assessed as log reduction of bacterial load; type: functional
# [13] = system: Mycobacterium tuberculosis; experiment: Antimycobacterial activity against Mycobacterium tuberculosis assessed as reduction in microbial growth by broth microdilution method; type: functional
# [14] = Inhibition of N-terminal His-tagged wild type Mycobacterium tuberculosis Rv1837c GlcB expressed in Escherichia coli BL21 by chromatography method
# [15] = Metabolic stability in mouse liver microsomes assessed as intrinsic clearance; type: ADME, Microsome; details: read-out: CLH
# [16] = system: Mycobacterium tuberculosis; experiment: Binding affinity to Mycobacterium tuberculosis RV0078 EthR2 assessed as change in melting temperature at 1 uM by thermal shift assay
# [17] = Inhibition of Mycobacterium tuberculosis RV0078 EthR2
# [18] = biological target: T2, Dihydrofolate reductase (Mycobacterium tuberculosis) (UniProt P9WNX1); experiment: Binding affinity to Mycobacterium tuberculosis DHFR assessed as change in melting temperature at 5 uM by thermal shift assay
# T2 sequence (whole entry): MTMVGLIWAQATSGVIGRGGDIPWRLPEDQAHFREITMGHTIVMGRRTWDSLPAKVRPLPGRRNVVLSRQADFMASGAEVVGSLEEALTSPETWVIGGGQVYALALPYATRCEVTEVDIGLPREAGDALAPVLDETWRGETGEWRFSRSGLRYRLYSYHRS
# Dihydrofolate reductase = biological target: T3, Dihydrofolate reductase (Mycobacterium tuberculosis, UniProt P9WNX1); experiment: Binding affinity to Mycobacterium tuberculosis DHFR assessed as dissociation constant
# T3 sequence (P9WNX1 whole entry): T2 sequence (whole entry)
# [19] = system: Mycobacterium tuberculosis; experiment: Antibacterial activity against Mycobacterium tuberculosis ATCC 27294 assessed as inhibition of cell growth incubated for 7 days by broth dilution method; type: functional; details: ATCC 27294, 168 h, time 7 day
# [20] = system: Mycobacterium tuberculosis; experiment: Antimycobacterial activity against Mycobacterium tuberculosis H37Rv ATCC 25618 assessed as bacterial growth inhibition; type: functional
# [21] = system: Mycobacterium tuberculosis; experiment: Binding affinity to Mycobacterium tuberculosis RV0078 EthR2 assessed as change in melting temperature at 20 uM by thermal shift assay
# [22] = system: Mycobacterium tuberculosis; experiment: Antimycobacterial activity against Mycobacterium tuberculosis […] assessed as reduction in bacterial growth incubated for 48 hrs by resazurin dye based analysis; type: functional
smiles,measurement,setting,value
CCOC(=O)c1cc(Cl)c(O)c(Cl)c1,MIC99,[1],< 53 µM
Cc1cc(N)n(Cc2ccccc2)n1,Kd,[2],3.3 µM
CC(C)(C)OC(=O)Nc1ccc(I)cc1C(=O)O,IC50,[3]; read-out: IC50,280 µM
same,MIC90,[4],300 µM
CNCc1ccc(N2CCCCC2)cc1,ΔTm,[5],3.8 °C
same,IC50,[6],> 100 µM
O=C(NCCC(F)(F)F)c1ccc(-c2noc(C3CC3)n2)cc1,CLH,[7],69 µL/min
same,ΔTm,[8],10.2 °C
same,EC50,[9],0.07 µM
same,log(activity),[10],2
COc1ccc(-c2nc(O)c3ccccc3n2)cc1,MIC99,[11],31.5 µg/mL
CC1(C)CCC(Cc2cc(O)c(-c3ccccc3)c(=O)[nH]2)CC1,IC50,[3]; read-out: pIC50 (converted),10 µM
same,log(activity),[12],1.5
N#Cc1ccc(N2CCC(CCC(=O)N3CCCC3)CC2)cc1,ΔTm,[5],7.5 °C
Cc1cc(N)n(Cc2ccc(C(=O)NCc3ccc(F)cc3Cl)cc2)n1,Kd,[2],8 µM
O=C(OCCCC1CCCC1)N1CCCC1,MIC50,[13],1 µM
O=C(O)/C=C/c1cccc(C(F)(F)F)c1,ΔTm,[8],3.2 °C
COc1ccc(CCC(=O)N2CCC(SS[C@@H]3CCN(C(=O)CCc4ccc(OC)cc4)C3)C2)cc1 (stereo partly drawn),IC50,[6],1.1 µM
Cc1cc(N)n(Cc2nnc(Nc3ccn(Cc4c(F)cccc4Cl)n3)s2)n1,Kd,[2],7.1 µM
O=C(NCc1cccnc1)NC1CCCCC1,IC50,[3]; read-out: pIC50 (converted),> 1000 µM
Cc1cncc(CNC(=O)NC2CCN(c3ncccn3)CC2)c1,Kd,[2],4.7 µM
CC(=O)NC1CCN(c2ncccn2)CC1,IC50,[3]; read-out: pIC50 (converted),> 1000 µM
O=C(Nc1ccc(I)cc1C(=O)O)c1ccc(Cl)c(Cl)c1,IC50,[3]; read-out: IC50,38 µM
same,MIC90,[4],300 µM
O=C(O)/C(O)=C/C(=O)c1ccc2[nH]ccc2c1,IC50,[14],0.02 µM
O=C(CCCC1CCCCC1)N1CCCC1,MIC50,[13],1 µM
O=C1CC2CCC(C1)N2CCc1ccc(Cl)cc1,microsomal CLint,[15],60 µL/min/mg
same,ΔTm,[16],3.4 °C
same,IC50,[17],1 µM
NS(=O)(=O)c1cc(Cl)cc(Cl)c1,MIC99,[1],111 µM
Cc1c(C(=O)O)cnn1-c1ccccc1,ΔTm,[18],1.2 °C
same,Kd,Dihydrofolate reductase,0.64 µM
CCNc1nnc(Cn2nc(C)cc2C)s1,IC50,[3]; read-out: pIC50 (converted),> 1000 µM
O=C(O)c1cc(Cl)c(O)c(Cl)c1,MIC,[19],971 µM
O=C(CCC1CCCC1)N1CCCC1,ΔTm,[5],3 °C
Nc1c(Cl)cc(S(N)(=O)=O)cc1Cl,MIC,[20],833 µM
O=C(CCc1c[nH]c2ccccc12)Nc1c(C(=O)O)cnn1-c1ccccc1,ΔTm,[18],5.1 °C
same,Kd,Dihydrofolate reductase,0.017 µM
O=C1CC2CCC(C1)N2CCc1ccc(C(F)(F)F)cc1,ΔTm,[21],0.6 °C
same,IC50,[17],0.2 µM
Cc1ccn(C(C)c2nnc(Nc3ccn(Cc4c(F)cccc4Cl)n3)s2)n1 (stereo not drawn),Kd,[2],6.3 µM
O=C(O)/C(O)=C/C(=O)c1ccccc1Br,IC50,[14],0.6 µM
same,MIC99,[22],6.25 µM
